Data published in patent publication US6699854B2, “Anti-cancer compounds” (Cyclacel Limited, priority 2000, dated 2004).
“Also recorded” adds a separate entry of the source. Where two headings read alike, the source gives them in different places.

Assays:
[1] = target: T1, CDK1/cyclin B (Homo sapiens, UniProt P06493); assay: CDK1/cyclin B kinase assay (GST-Rb phosphorylation); type: biochemical; settings: Table 1
T1 construct: His; made in house; host or cells: Sf9 insect cells (baculovirus)

[2] = target: T2, CDK2/cyclin E (Homo sapiens, UniProt P24941); assay: CDK2/cyclin E kinase assay (GST-Rb phosphorylation); type: biochemical;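 also: enzyme source: His-tagged CDK2/cyclin E co-expressed in Sf9 insect cells via baculovirus, then purified by metal-chelate chromatography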
T2 construct: His; made in house; host or cells: Sf9 insect cells (baculovirus)

[3] = target: ERK-2 (Homo sapiens, UniProt P28482); assay: ERK-2 kinase assay (kinase panel); type: biochemical; settings: Table 1
Sequence of ERK-2 (P28482 whole entry, species assumed): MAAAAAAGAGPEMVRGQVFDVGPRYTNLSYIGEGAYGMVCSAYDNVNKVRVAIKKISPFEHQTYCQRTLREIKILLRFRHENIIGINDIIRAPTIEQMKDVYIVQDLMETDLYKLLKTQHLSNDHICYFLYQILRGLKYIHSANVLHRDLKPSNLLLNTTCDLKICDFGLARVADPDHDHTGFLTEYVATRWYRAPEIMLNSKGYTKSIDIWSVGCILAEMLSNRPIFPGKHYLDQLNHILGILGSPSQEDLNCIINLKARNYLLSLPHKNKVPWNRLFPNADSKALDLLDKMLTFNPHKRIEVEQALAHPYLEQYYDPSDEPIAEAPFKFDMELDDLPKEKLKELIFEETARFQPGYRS

[4] = target: T3, PKCa (Homo sapiens, UniProt P17252); assay: PKCα kinase assay (Histone 3 phosphorylation); type: biochemical; settings: Table 1
T3 construct: 6×His (C); made in house; host or cells: Sf9 insect cells (baculovirus)
Protocol: PKCα kinase activity may be measured by the incorporation of radio-labeled phosphate in Histone 3, as described. The reaction mixture (total volume 65 μl) consist of 50 mM Tris-HCl, 1 mM Calcium acetate, 3 mM DTT, 0.03 mg/ml Phosphatidylserine, 2.4 μg/ml PMA, 0.04% NP40, 12 mM Mg/Cl, purified PKCα-100 ng, Histone 3, 0.2 mg/ml, 100 μM ATP, 0.2 μCi {γ-^32P}-ATP. The reaction is carried over 15 min at 37° C. in microplate shaker and is stopped by adding 10 μl 75 mM orthophosphoric acid and placing the plate on ice. 50 μl of the reaction mixture is transferred onto P81 filterplate and after washing off the free radioactive phosphate (3 times with 200 μl 75 mM orthophosphoric acid per well) 50 μl of scintillation liquid (Microscint 40) were added to each well and the radioactivity is measured on Scintillation counter (Topcount, HP).

[5] = target: SAPK2a (Homo sapiens, UniProt Q16539); assay: SAPK2a kinase assay (kinase panel); type: biochemical; settings: Table 1
Sequence of SAPK2a (Q16539 whole entry, species assumed): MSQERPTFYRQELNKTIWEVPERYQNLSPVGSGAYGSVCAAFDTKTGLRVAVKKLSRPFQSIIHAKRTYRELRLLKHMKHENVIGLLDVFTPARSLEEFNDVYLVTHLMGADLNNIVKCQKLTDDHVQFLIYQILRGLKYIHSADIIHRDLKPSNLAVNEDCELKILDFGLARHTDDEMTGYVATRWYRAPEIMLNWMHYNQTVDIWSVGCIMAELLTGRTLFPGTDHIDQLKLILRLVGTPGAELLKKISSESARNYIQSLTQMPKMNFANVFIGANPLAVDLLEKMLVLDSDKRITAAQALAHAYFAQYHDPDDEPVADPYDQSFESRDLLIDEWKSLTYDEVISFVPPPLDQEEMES

[6] = target: S6; assay: S6 kinase assay (kinase panel); type: biochemical; settings: Table 1
[7] = target: CDK4/cyclin D1 (Homo sapiens, UniProt P11802); assay: biochemical
Sequence of CDK4/cyclin D1 (P11802 whole entry, species assumed): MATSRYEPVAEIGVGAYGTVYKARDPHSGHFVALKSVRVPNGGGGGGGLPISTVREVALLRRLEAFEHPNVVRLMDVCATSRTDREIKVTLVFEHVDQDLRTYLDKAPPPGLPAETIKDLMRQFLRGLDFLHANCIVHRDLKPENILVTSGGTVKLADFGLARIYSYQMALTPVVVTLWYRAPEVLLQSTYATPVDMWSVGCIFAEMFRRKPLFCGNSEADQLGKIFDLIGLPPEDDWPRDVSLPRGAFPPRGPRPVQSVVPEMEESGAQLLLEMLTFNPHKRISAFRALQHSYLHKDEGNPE
Sequence of CDK4/cyclin D1 (P24385 whole entry partner, species assumed): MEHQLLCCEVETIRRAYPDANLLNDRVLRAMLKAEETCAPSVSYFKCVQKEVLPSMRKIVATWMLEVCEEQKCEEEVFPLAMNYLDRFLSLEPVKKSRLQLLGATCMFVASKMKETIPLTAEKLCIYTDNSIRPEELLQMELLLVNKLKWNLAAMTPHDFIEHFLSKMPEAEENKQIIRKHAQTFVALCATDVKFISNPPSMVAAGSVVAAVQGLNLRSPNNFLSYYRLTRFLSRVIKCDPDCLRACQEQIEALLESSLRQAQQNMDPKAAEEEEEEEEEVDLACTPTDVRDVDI

[8] = test system: A549; assay: 72-h MTT cytotoxicity assay, A549; type: cell-based, human; settings: Homo sapiens
Procedure, shortened: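 Human tumour cell lines exposed to compounds in a standard 72-h MTT proliferation assay.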

[9] = test system: Saos-2; assay: 72-h MTT cytotoxicity assay, Saos-2; type: cell-based; settings: Homo sapiens, SAOS-2, read-out: 72-h Cytotoxicity IC 50 Saos-2; Table 3, 72-h MTT
Protocol: (§1) Selected compounds from the above examples were subjected to a standard cellular proliferation assay using a range of different human tumour cell lines. Standard 72-h MTT (thiazolyl blue; 3-{4,5-dimethylthiazol-2-yl}-2,5-diphenyltetrazolium bromide) assays were performed (Haselsberger, K.; Peterson, D. C.; Thomas, D. G.; Darling, J. L. Anti Cancer Drugs 1996, 7, 331-8; Loveland, B. E.; Johns, T. G.; Mackay, I. R.; Vaillant, F.; Wang, Z. X.; Hertzog, P. J. Biochemistry International 1992, 27, 501-10). Human tumour cell lines were obtained from the ATCC (American Type Culture Collection, 10801 University Boulevard, Manessas, Va. 20110-2209, USA).

[10] = test system: MCF-7; assay: 72-h MTT cytotoxicity assay, MCF-7; type: cell-based; settings: Homo sapiens, MCF7, read-out: 72-h Cytotoxicity IC 50 MCF-7; Table 3, 72-h MTT
Protocol: as §1

[11] = test system: AGS; assay: 72-h MTT cytotoxicity assay, AGS; type: cell-based; settings: Homo sapiens, read-out: 72-h Cytotoxicity IC 50 AGS, Table 3, 72-h MTT
Protocol: as §1

[12] = test system: DU145; assay: 72-h MTT cytotoxicity assay, DU145; type: cell-based; settings: Homo sapiens, DU-145, read-out: 72-h Cytotoxicity IC 50 DU145; Table 3, 72-h MTT
Protocol: as §1

[13] = test system: HeLa; assay: 72-h MTT cytotoxicity assay, HeLa; type: cell-based; settings: Homo sapiens, read-out: 72-h Cytotoxicity IC 50 HeLa, Table 3, 72-h MTT
Protocol: as §1

[14] = test system: A549 cells; assay: Mitotic index HitKit (Cellomix); type: cell-based, human; settings: at a concentration of 4.4 μM, untreated wells […], toxicity above this concentration
Description: The effect of compound 28 on the mitotic index was studied using mitotic index HitKit (Cellomix). Vinblastine was used as control in the experiments.
Above this concentration a decrease in the number of mitotic cells is observed which correlates with a decrease in the total number of cells.

[15] = test system: Human osteosarcoma tumour cells (Saos-2); assay: Mitotic arrest and apoptosis by phase-contrast microscopy; type: cell-based; settings: Saos-2 cells, 1 μM, 48 h
Protocol: Human osteosarcoma tumour cells (Saos-2) were treated with 1 μM of compound 28 for 48 h. […] Compound 28-induced accumulation of mitotic cells was further quantified using mitotic index HitKit (Cellomix).

[16] = test system: Human lung carcinoma cells (A549); assay: Induction of programmed cell death (cytoplasmic vacuolation); type: cell-based; settings: 10 μM, 16 h
Protocol: In addition to the induction of apoptosis some of the compounds of the invention are capable of inducing forms of programmed cell death that is distinct from apoptosis by the criteria of morphology. Human lung carcinoma cells (A549) were treated for 16 h with 10 μM compound 28.

[17] = test system: human tumour cell lines; assay: Cell-based assays (anti-proliferative)
Description: These assays including methods for their performance are described in more detail in Example 23. Using such cell line and enzymes assays it may be determined whether a compound is anti-proliferative in the context of the present invention.
as §1

[18] = A549, 72 h, read-out: 72-h Cytotoxicity IC 50 A549, Table 3, 72-h MTT
[19] = Table 4, additional data for cytotoxicity assay using the A549 cell line, read-out: A549

T1 sequence (P06493 whole entry, species assumed): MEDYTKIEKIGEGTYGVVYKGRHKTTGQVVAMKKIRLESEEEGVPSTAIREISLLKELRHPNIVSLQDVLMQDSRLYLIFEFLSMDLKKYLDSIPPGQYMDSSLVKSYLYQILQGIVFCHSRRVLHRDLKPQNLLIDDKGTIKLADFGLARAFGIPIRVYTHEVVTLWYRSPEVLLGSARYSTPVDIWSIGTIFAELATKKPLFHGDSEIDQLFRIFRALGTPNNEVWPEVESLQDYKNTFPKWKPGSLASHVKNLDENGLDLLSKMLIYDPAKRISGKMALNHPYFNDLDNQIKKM
T1 sequence (P14635 whole entry partner, species assumed): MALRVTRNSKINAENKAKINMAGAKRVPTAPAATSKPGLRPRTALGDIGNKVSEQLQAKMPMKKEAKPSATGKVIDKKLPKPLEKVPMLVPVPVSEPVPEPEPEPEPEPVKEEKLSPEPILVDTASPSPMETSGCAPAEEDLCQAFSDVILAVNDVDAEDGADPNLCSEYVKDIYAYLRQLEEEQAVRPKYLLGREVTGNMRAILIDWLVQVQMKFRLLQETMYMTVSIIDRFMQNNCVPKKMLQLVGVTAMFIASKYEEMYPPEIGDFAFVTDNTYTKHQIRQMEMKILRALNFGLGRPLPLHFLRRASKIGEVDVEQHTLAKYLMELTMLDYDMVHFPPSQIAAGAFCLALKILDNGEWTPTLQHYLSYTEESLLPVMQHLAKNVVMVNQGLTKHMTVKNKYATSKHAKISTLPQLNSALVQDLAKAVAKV

| Compound | IC50 [1] [µM] | IC50 [3] [µM] | IC50 [4] [µM] | IC50 [5] [µM] | IC50 [6] [µM] | IC50 [8, 18] [µM] | IC50 [8, 19] [µM] | IC50 [9] [µM] | IC50 [10] [µM] | IC50 [11] [µM] | IC50 [12] [µM] | IC50 [13] [µM] | other results |
| --- | --- | --- | --- | --- | --- | --- | --- | --- | --- | --- | --- | --- | --- |
| Cc1nc(C)c(-c2ccnc(Nc3ccc(Cl)cc3)n2)s1 [Compound 6, (4-Chloro-phenyl)-{4-(2,4-dimethyl-thiazol-5-yl)-pyrimidin-2-yl}-amine] | > 20 | > 20 | > 20 | > 20 | > 20 | – | – | – | – | – | – | – | IC50 ([2]; CDK2/cyclin E, Table 2, further results for CDK2/cyclin E inhibition): 5 ± 9 µM; IC50 ([2]; Kinase assay IC50 CDK2/cyclin E, Table 1): 9 ± 12 µM; IC50 [7]: 0.5 ± 0.5 µM |
| Cc1nc(C)c(-c2ccnc(Nc3ccc(C(F)(F)F)cc3)n2)s1 [Compound 28, {4-(2,4-Dimethyl-thiazol-5-yl)-pyrimidin-2-yl}-(4-trifluoromethyl-phenyl)-amine] | – | – | – | – | – | – | 3.5 | – | – | – | – | – | maximum percentage of mitotic cells [14]: 17%; mitotic arrest and induction of apoptosis [15]: mitotic arrest and induction of apoptosis; also recorded: accumulation of mitotic cells and appearance of apoptotic cells was observed; induction of programmed cell death, cytoplasmic vaculation [16]: Extensive cytoplasmic vaculation is observed |
| Cc1nc(C)c(-c2ccnc(Nc3ccc(Br)cc3)n2)s1 [Compound 31, (4-Bromo-phenyl)-{4-(2,4-dimethyl-thiazol-5-yl)-pyrimidin-2-yl}-amine] | – | – | – | – | – | – | 0.3 ± 0.05 | – | – | – | – | – | IC50 ([2]; Table 2, further results for CDK2/cyclin E inhibition, read-out: CDK2/cyclin E): 0.2 µM; melting point: 173 to 175 °C |
| Cc1nc(C)c(-c2ccnc(Nc3ccc(I)cc3)n2)s1 [Compound 34, {4-(2,4-Dimethyl-thiazol-5-yl)-pyrimidin-2-yl}-(4-iodo-phenyl)-amine] | – | – | – | – | – | – | 0.02 | – | – | – | – | – | anti-proliferative effect (in words) [17]: even more effective anti-proliferative agent |

Now from value to molecule, other results behind:

| IC50 [1] [µM] | IC50 [3] [µM] | IC50 [4] [µM] | IC50 [5] [µM] | IC50 [6] [µM] | Compound | IC50 [8, 18] [µM] | IC50 [8, 19] [µM] | IC50 [9] [µM] | IC50 [10] [µM] | IC50 [11] [µM] | IC50 [12] [µM] | IC50 [13] [µM] | other results |
| --- | --- | --- | --- | --- | --- | --- | --- | --- | --- | --- | --- | --- | --- |
| 0.1 | > 20 | > 20 | > 20 | > 20 | Cc1nc(C)c(-c2ccnc(Nc3cccc([N+](=O)[O-])c3)n2)s1 [Compound 12, {4-(2,4-Dimethyl-thiazol-5-yl)-pyrimidin-2-yl}-(3-nitro-phenyl)-amine] | 1.5 ± 0.3 | 0.2 | 1.4 ± 0.3 | 1.7 ± 0.1 | 1 ± 0.2 | 1 ± 0.1 | 1.2 ± 0.2 | – |
| 0.2 | 2.5 | > 20 | > 20 | 1 | Cc1nc(C)c(-c2ccnc(Nc3ccc(F)cc3)n2)s1 [Compound 21, {4-(2,4-Dimethyl-thiazol-5-yl)-pyrimidin-2-yl}-(4-fluoro-phenyl)-amine] | 5.4 ± 0.4 | 6.3 | 8.5 ± 1.6 | 9.9 ± 0.4 | 4.2 ± 0.3 | 4.3 ± 0.2 | 3.2 ± 0.8 | – |
